The subject of one experiment is mice. To be noted: cited from earlier work; for induction of (cutaneous) vasodilation: agonist alone.
In experiment [1] the test system is Hb9::GFP human ES cell-derived motor neurons on SOD1G93A glia. The experiment in a line: Survival of human ES cell-derived motor neurons co-cultured with SOD1G93A glia treated with prostaglandin D2 receptor antagonists. To be noted: for Hb9::GFP cells remaining (cell death / survival of motor neurons) on SOD1G93A glia: 10 days of treatment. It is filed as cell-based.

The test system of experiment [2] is Hb9::GFP human ES cell-derived motor neurons. The experiment can be described thus: Survival of Hb9::GFP human ES cell-derived motor neurons co-cultured with non-transgenic (WT) glia treated with candidate factors. It is filed as cell-based. To be noted: 20 days of treatment. On the procedure:
After 24 hours, the cells had aggregated to form embryoid bodies (EBs), and the media was changed to remove debris by centrifuging the EBs and resuspending in fresh in human ES cell media without bFGF2 or plasmanate in low attachment 6-well plates. EBs were cultured as such for 13 more days, with half of the media changed every two days, and a complete media change every week. After 14 days, the EBs were induced toward a caudal and ventral identity using retinoic acid (1 μM, Sigma) and an agonist of the Shh signaling pathway (1 μM) in N2 media: 1:1 DMEM:F-12+Glutamate (Gibco), 10,000 units Penicillin and 1 mg/mL Streptomicin (Gibco), 1% N2 Supplement (Gibco), 0.2 mM ascorbic acid (Sigma-Aldrich), 0.16% D-(+)-Glucose (Sigma-Aldrich), BDNF (10 ng/ml, R&D Systems), for another 14 days. The EBs were then matured for a final 14 days in N2 media with GNDF (10 ng/mL, R&D Systems). After 42 days of differentiation, the EBs were dissociated. To dissociate the EBs, they were centrifuged at 1000 rpm for 5 min in a 15 ml falcon tube, and then washed once with PBS to eliminate residual media. The EBs were then incubated for 60 minutes at 37° C. in Earle's Balanced Salt Solution with 20 units of papain and 1000 units of Deoxyribonuclease I (Worthington Biochemical Corporation). EBs were triturated using a 2 mL serological pipette every 15-20 minutes during this incubation. When an almost single cell suspension was achieved, the cells were centrifuged for 5 minutes at 1000 RPM. […] These cells were then counted and plated on Poly-D-Lysine/Laminin CultureSlides (BD biosciences) or on a layer of primary glial cells. Depending on the experiment, motor neurons or interneurons were counted 10 or 20 days after plating.
Non-transgenic glia were individually pretreated for 1 day with either one of the three cytokines MCP2, Cxcl7, or Rantes; with GMFb; an agonist of SHH pathway; or with PGD2. […] Replicate cultures were individually maintained for 20 days in the presence of each of the 6 factors, fixed, and the numbers of GFP positive motor neurons quantified. […]

For `O=C(O)CCCCCCC1C(=O)NC(=O)N1CCC(O)C1CCCCC1` (stereo not shown) [BW245C], the “induction of (cutaneous) vasodilation” value in the experiment with mice was “induced vasodilation”. Regarding `O=C(O)CCCCCCC1C(=O)N(Cc2ccccc2)C(=O)N1NCC(O)C1CCCCC1` (stereo not shown) [BWA868C], the “Hb9::GFP cells remaining (cell death / survival of motor neurons) on SOD1G93A glia” value in experiment [1] is “significantly reduced cell death”; in experiment [1] (listed as BW868C) it was “significantly reduced neuronal cell death”. Turning to `CCCCCC(=O)CCC1C(=O)CC(O)C1C/C=C\CCCC(=O)O` (stereo not shown) [DK-PGD2, 13,14-dihydro-15-keto-PGD2], the “induction of (cutaneous) vasodilation” value in the experiment with mice is reported as “did not induce cutaneous vasodilation”. For the molecule `CS(=O)(=O)c1cc(F)cc2c3c(n(Cc4ccc(Cl)cc4)c12)[C@@H](CC(=O)O)CC3` [MK 0524], in the experiment on mice (PGD2 or nicotinic acid (NA) challenge), the “blockade of PGD2- and NA-induced vasodilation” value was “blocked both PGD2- and NA-induced vasodilation”. In addition, in experiment [1], the “increase in the number of GFP positive neurons relative to untreated neurons plated on the same glia” value came out at 32% and the “neuronal cell death for motor neurons cultured on SOD1G93A glia” value is “significantly reduced neuronal cell death”.

In the case of `CCCCC[C@H](O)/C=C/[C@H]1C(=O)C[C@H](O)[C@@H]1C/C=C\CCCC(=O)O` [PGD2, prostaglandin D2], the “number of motor neurons compared to the control condition” value in experiment [2] (WT glia pretreated 1 day, 10 μM) was determined as 19%+/−2%.

B1: GMFb: glial maturation factor beta, induces a pro-inflammatory state in astrocytes (protein, UniProt Q9CQI3 2-142, looked up)
Glia maturation factor beta: SESLVVCDVAEDLVEKLRKFRFRKETHNAAIIMKIDKDERLVVLDEELEGVSPDELKDELPERQPRFIVYSYKYQHDDGRVSYPLCFIFSSPVGCKPEQQMMYAGSKNKLVQTAELTKVFEIRNTEDLTEEWLREKLGFFH
Regarding B1, the “number of human ES cell derived motor neurons compared to the control condition” value in experiment [2] (non-transgenic (WT) glia pretreated 1 day, 250 ng/ml) is 95%+/−9%.

B2: Mcp2: cytokine over expressed in mutant glia (protein, UniProt Q9Z121 24-97, looked up)
C-C motif chemokine 8: GPDKAPVTCCFHVLKLKIPLRVLKSYERINNIQCPMEAVVFQTKQGMSLCVDPTQKWVSEYMEILDQKSQILQP
For the molecule B2, in experiment [2] (non-transgenic (WT) glia pretreated 1 day, 100 ng/ml), the “number of GFP positive motor neurons compared to the control condition” value was found to be 103%+/−8%.
